# Experimental data: patent publication US7714014B2, “Targeting GLI proteins in human cancer by small molecules” (The Regents of the University of California, priority 2005, dated 2010)
# Entries after “also recorded” stand apart in the source; their conditions may differ.
# Assays:
# [1] = system: human hepatocellular carcinoma cell lines HEPG2 and SK-Hep-1; experiment: Cell survival assay (crystal violet); format: cell-based; settings: for cell killing: 50 μM
# Procedure: (§1) Typically, the small molecule compounds of the present invention were dissolved in DMSO at a concentration of 30 mM. The small molecule compounds were then tested under cell culture conditions at different concentrations ranging from 0, 10, 30, 50, to 100 uM. To determine cell survival after treatment, the cells were incubated with the small molecule compounds in 6-well plates for about 3 days. After removal of the cell culture medium, 1-ml of 0.5% crystal violet solution (prepared in 20% ethanol and 20% methanol) was added to stain the cells for 5 min. Then the crystal violet solution was rinsed clean with tap water. Cell survival was estimated based on the density of crystal stained plates.
# The cell-based cytotoxicity assay described herein was used to determine the effect of small molecule compounds FN1-5 and FN1-8 in the human hepatocellular carcinoma cell lines HEPG2 and SK-Hep-1. Viability of these cells was analyzed after treatment with 10, 30 and 50 μM FN1-5 or FN1-8.
# [2] = system: Hedgehog (Hh) signaling pathway (Ptch1, Gli1) in NSCLC cell lines H460 and A549; experiment: Semi-quantitative RT-PCR of Hedgehog pathway genes; format: cell-based, human; settings: for expression of Hh pathway key components and direct target genes (Ptch1, Gli1): 30 μM, 2 days, data not shown
# Procedure: (§2) Total RNA from cell lines or tissue samples was isolated using Qiagen RNeasy Mini Kit (Valencia, Calif.). RT-PCR was performed in GeneAmp PCR system 2700 (Applied Biosystems, Foster City, Calif.) using One-step RT-PCR Kit from Invitrogen Life Technologies (Carlsbad, Calif.). Primers for RT-PCR were obtained from Operon Technologies Inc. (Alameda, Calif.). Primer sequences for amplifying different genes in Hedgehog and Wnt signaling pathways are listed in the table below (Table 1; F, forward primer; R, reverse primer). The expected size of the PCR product is indicated for each primer pair. GAPDH was used as internal control.
# To further examine the mechanism of action of the small molecule compounds of the present invention, the effect of compounds FN1-5 and FN1-8 on the Hedgehog (Hh) signaling pathway was examined in NSCLC cell lines H460 and A549. H460 and A549 cells were incubated with 30 μM of each compound (FN1-5 or FN1-8) for 2 days before isolation of total RNA that was used for semi-quantitative RT-PCR analysis. […] GAPDH served as a control.
# [3] = system: human SOCS3 promoter in NSCLC cell line A549; experiment: SOCS3 promoter-luciferase reporter assay; format: cell-based; settings: A549, 30 μM, 18-24 hours
# Procedure: One day before transfection, cells (1×10^5) were plated in 12-well plates with growth medium without antibiotics. When cells reached 80-90% of confluence they were co-transfected using 0.5 μg of each promoter construct in pGL3Basic vector and 0.025 μg pRL-TK Vector (Promega; Madison, Wis.) containing Renilla Luciferase as an internal control for the transformation efficiency. Lipofectamine 2000™ (Invitrogen Life Technologies) was used to mediate transfection for about 6 hours. Then the medium was replaced with fresh medium containing various small molecule compounds at a concentration of 30 μM, and the resulting cells were cultured for an additional 18-24 hours and subjected to luciferase assay. Briefly, cells were lysed in a lysis buffer and Firefly and Renilla Luciferase activities in cells of each well, were measured using Dual-Luciferase Assay System (Promega) and an illuminometer. The measured luciferase activities were normalized to pRL-TK Vector activity and were given relative to the basal activity of empty pGL3-Basic Vector, which was set to unity. The data shown represent mean values (±S.D.). All measurements were performed in triplicate and repeated in at least three independent experiments. The human Wnt-2 promoter-luciferase construct, the human SOCS3 promoter-Luciferase construct and the human Gremlin promoter-luciferase construct were cloned and characterized in the laboratory of Dr. Jablons at the University of California, San Francisco (San Francisco, Calif.; He et al., Biochem Biophy Res Comm, 2003; and unpublished data). The 6GLI-TKO-luciferase construct (containing 6 repeats of consensus GLI DNA binding sequence) was kindly provided by Dr. Matthias Hebrok's laboratory at the University of California, San Francisco (San Francisco, Calif.).
# As a third specificity test for the small molecule compounds of the present invention, the ability of these compounds to regulate the expression of genes that are not down-stream targets of the Gli activation was analyzed. SOCS3, an inhibitor and down-stream target gene of JAK/STAT pathway was chosen for this experiment. Expression of SOCS3 is not under control of Gli and/or Wnt activation. Furthermore, no GLI and TCF binding sites were found in the human SOCS3 promoter cloned in the laboratory of Dr. Jablons (University of California, San Francisco; data not shown). Thus, SOCS3 promoter-luciferase reporter activity was measured after the treatment of the NSCLC cell line A549 with small molecule compounds FN1-5, FN1-7, FN1-8, and FN1-9U.
# [4] = system: Normal muscle cells; experiment: Apoptosis analysis (Annexin V FITC, flow cytometry); format: cell-based, human; settings: 3 days
# Procedure: Apoptosis was analyzed by using an Annexin V FITC Apoptosis Detection Kit (Biosource, Camarillo, Calif.), according to the manufacturer's protocol. After treatment with different small molecule compounds at various concentrations for about 3 days, cells were harvested by trypsinization, stained and immediately analyzed by flow cytometry (FACScan; Decton Dickinson, Franklin Lake, N.J.). Early apoptotic cells with exposed phosphatidylserine but intact cell membranes will bind to Annexin V-FITC, but not propidium iodide (PI). Cells in necrotic or late apoptotic stages will be labeled with both Annexin V-FITC and PI. “% apoptotic cells” or “% apoptosis” refers to the combined early and late apoptotic cells.
# In addition, apoptosis induction after the treatment of different doses of FN1-5 or FN1-8 in normal human muscle cells was examined by flow cytometry. Normal muscle cells were plated in 6-well plates and incubated with 1, 10, 30, and 50 μM of each compound for 3 days, as above.
# [5] = system: normal human muscle cells; experiment: Cell survival assay (crystal violet); format: cell-based; settings: 1, 10, 30, and 50 μM, 3 days
# Procedure: as §1
# The cell killing effect of small molecule compounds FN1-8, FN1-7, and FN1-5 at different doses was examined in normal human muscle cells. […] Normal muscle cells were plated in 6-well plates and incubated with 1, 10, 30, and 50 μM of each compound for 3 days, in the same manner as described herein for similar other experiments. […] Both FN1-5 and FN1-8 seem to be specific in killing cancer cells.
# [6] = system: hedgehog pathway in HT29 cells; experiment: Semi-quantitative RT-PCR of Hedgehog pathway genes; format: cell-based, human; settings: data not shown
# Procedure: as §2
# [7] = system: human breast cancer cell line MCF-7; experiment: Cell survival assay (crystal violet); format: cell-based; settings: for cell killing: MCF-7, 50 μM
# Procedure: as §1
# The cell-based cytotoxicity assay described herein was used to determine the effect of small molecule compounds FN1-5 and FN1-8 in the human breast cancer cell line MCF-7. Viability of MCF-7 cells was analyzed after treatment with 30 and 50 μM FN1-5 and after treatment with 10, 30, and 50 μM FN1-8.
SMILES,cell killing potency compared with FN1-5 [1],cell killing [1],inhibitory effect on Hh and Wnt pathways compared with FN1-5 [2],"expression of Hh pathway key components and direct target genes (Ptch1, Gli1) [2]",SOCS3 promoter activity [3],% of apoptotic cells ([4]; 10 μM) [%],% of apoptotic cells ([4]; 30 μM) [%],% of apoptotic cells ([4]; 50 μM) [%],cell killing effect in normal cells [5],modulation of hedgehog pathway (RT-PCR) [6],cell killing potency compared with FN1-5 ([7]; MCF-7),cell killing [7]
"O=C(NCCc1ccc(O)cc1)C1C(c2ccccc2)=NN(c2ccccc2)C1c1ccccc1 (stereo not drawn) [FN1-8, N-(2-(4-Hydroxyphenyl)ethyl)-1,3,5-triphenyl-4,5-dihydro-pyrazole-4-carboxyamide]",more potent,dramatic cell killing,more inhibitory effect,downregulated,inactive; also recorded: do not regulate SOCS3 promoter activity,7.8,9.3,9.7,No noticeable cell killing effect,no noticeable changes,more potent,dramatic cell killing
"O=C(NCCCCCO)C1C(c2ccccc2)=NN(c2ccccc2)C1c1ccccc1 (stereo not drawn) [FN1-5, N-(5-Hydroxypentyl)-1,3,5-triphenyl-4,5-dihydro-pyrazole-4-carboxyamide]",,dramatic cell killing,,downregulated,inactive; also recorded: do not regulate SOCS3 promoter activity,7.5,7.6,8.8,No noticeable cell killing effect,no noticeable changes,,dramatic cell killing
